{
  "source": "paper PMC9022726",
  "about": "(International journal of biological macromolecules, 2021)",
  "target": "tau K18 (Homo sapiens, UniProt P10636)",
  "sequence (P10636 561-689)": "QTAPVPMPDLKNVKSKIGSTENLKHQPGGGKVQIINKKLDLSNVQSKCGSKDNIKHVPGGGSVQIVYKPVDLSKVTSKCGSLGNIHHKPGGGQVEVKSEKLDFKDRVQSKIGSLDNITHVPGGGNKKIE",
  "assay": "intrinsic fisetin fluorescence titration",
  "type": "binding",
  "data": [
    {"smiles": "O=c1c(O)c(-c2ccc(O)c(O)c2)oc2cc(O)ccc12", "note": "[fisetin]", "values": [
      {"measurement": "Kd", "value": "22.6 ± 1.81", "unit": "µM"}
    ]}
  ]
}
